Measured values taken from patent US8952024B2, “Herbicidal pyrimidone derivatives” (E I du Pont de Nemours and Company, priority 2009, dated 2015).

What was measured:
Assay in all cases: Test D pre-/postemergence plant response
Assay type in all cases: in vivo
Details in all cases: Postemergence, scale 0 to 100 (0 no effect, 100 complete control)
[1] = tested on: nutsedge (purple nutsedge, Cyperus rotundus)
Summary of the method: (§1)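 Pre + post applications; loam/sand soil; solvent + surfactant vehicle; post-em plants 1- to 4-leaf (2–18 cm); greenhouse 14–21 d; visual score 0 (none) to 100 (full control) vs untreated.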

[2] = tested on: quackgrass (Elytrigia repens)
Summary of the method: as §1

[3] = tested on: field bindweed (Convolvulus arvensis)
Summary of the method: as §1

[4] = tested on: guineagrass (Panicum maximum)
Summary of the method: as §1

[5] = tested on: large crabgrass (Digitaria sanguinalis)
Summary of the method: as §1

[6] = tested on: signalgrass (broadleaf signalgrass, Brachiaria platyphylla)
Summary of the method: as §1

[7] = tested on: chickweed (common chickweed, Stellaria media)
Summary of the method: as §1

[8] = tested on: Italian ryegrass (Lolium multiflorum)
Summary of the method: as §1

[9] = tested on: Russian thistle (Salsola kali)
Summary of the method: as §1

[10] = tested on: naked crabgrass (Digitaria nuda)
Summary of the method: as §1

[11] = tested on: groundsel (common groundsel, Senecio vulgaris)
Summary of the method: as §1

[12] = tested on: bermudagrass (Cynodon dactylon)
Summary of the method: as §1

[13] = tested on: Surinam grass (Brachiaria decumbens)
Summary of the method: as §1

[14] = tested on: purslane (common purslane, Portulaca oleracea)
Summary of the method: as §1

[15] = tested on: sowthistle (common sowthistle, Sonchus oleraceous)
Summary of the method: as §1

[16] = tested on: morningglory (pitted morningglory, Ipomoea lacunosa)
Summary of the method: as §1

[17] = tested on: black mustard (Brassica nigra)
Summary of the method: as §1

Compound: CCCn1c(-c2ccccc2)ncc(C(=O)C2=C(O)C3CCC(C3)C2=O)c1=O (stereo not shown) [Compound 226]
- Plant response rating, Nutsedge, Purple ([1]; 125 g ai/ha): 0
- Plant response rating, Nutsedge, Purple ([1]; 250 g ai/ha): 5
- Plant response rating, Nutsedge, Purple ([1]; 62 g ai/ha): 0
- Plant response rating, Quackgrass ([2]; 125 g ai/ha): 20
- Plant response rating, Quackgrass ([2]; 250 g ai/ha): 35
- Plant response rating, Quackgrass ([2]; 62 g ai/ha): 0
- Plant response rating, Field Bindweed ([3]; 125 g ai/ha): 70
- Plant response rating, Field Bindweed ([3]; 250 g ai/ha): 80
- Plant response rating, Field Bindweed ([3]; 62 g ai/ha): 70
- Plant response rating, Guineagrass ([4]; 125 g ai/ha): 80
- Plant response rating, Guineagrass ([4]; 250 g ai/ha): 80
- Plant response rating, Guineagrass ([4]; 62 g ai/ha): 80
- Plant response rating, Crabgrass, Large ([5]; 125 g ai/ha): 75
- Plant response rating, Crabgrass, Large ([5]; 250 g ai/ha): 85
- Plant response rating, Crabgrass, Large ([5]; 62 g ai/ha): 75
- Plant response rating, Signalgrass ([6]; 125 g ai/ha): 65
- Plant response rating, Signalgrass ([6]; 250 g ai/ha): 65
- Plant response rating, Signalgrass ([6]; 62 g ai/ha): 40
- Plant response rating, Chickweed ([7]; 125 g ai/ha): 35
- Plant response rating, Chickweed ([7]; 250 g ai/ha): 85
- Plant response rating, Chickweed ([7]; 62 g ai/ha): 35
- Plant response rating, Ryegrass, Italian ([8]; 125 g ai/ha): 0
- Plant response rating, Ryegrass, Italian ([8]; 250 g ai/ha): 15
- Plant response rating, Ryegrass, Italian ([8]; 62 g ai/ha): 0
- Plant response rating, Russian Thistle ([9]; 125 g ai/ha): 40
- Plant response rating, Russian Thistle ([9]; 250 g ai/ha): 70
- Plant response rating, Crabgrass, Naked ([10]; 125 g ai/ha): 70
- Plant response rating, Crabgrass, Naked ([10]; 250 g ai/ha): 75
- Plant response rating, Crabgrass, Naked ([10]; 62 g ai/ha): 65
- Plant response rating, Groundsel ([11]; 125 g ai/ha): 95
- Plant response rating, Groundsel ([11]; 250 g ai/ha): 100
- Plant response rating, Groundsel ([11]; 62 g ai/ha): 90
- Plant response rating, Bermudagrass ([12]; 31 g ai/ha): 90
- Plant response rating, Bermudagrass ([12]; 125 g ai/ha): 95
- Plant response rating, Bermudagrass ([12]; 250 g ai/ha): 98
- Plant response rating, Bermudagrass ([12]; 62 g ai/ha): 95
- Plant response rating, Surinam Grass ([13]; 125 g ai/ha): 90
- Plant response rating, Surinam Grass ([13]; 250 g ai/ha): 90
- Plant response rating, Surinam Grass ([13]; 62 g ai/ha): 70
- Plant response rating, Purslane ([14]; 125 g ai/ha): 65
- Plant response rating, Purslane ([14]; 250 g ai/ha): 70
- Plant response rating, Purslane ([14]; 62 g ai/ha): 50
- Plant response rating, Sowthistle ([15]; 125 g ai/ha): 98
- Plant response rating, Sowthistle ([15]; 250 g ai/ha): 98
- Plant response rating, Sowthistle ([15]; 62 g ai/ha): 98
- Plant response rating, Morningglory ([16]; 125 g ai/ha): 70
- Plant response rating, Morningglory ([16]; 250 g ai/ha): 80
- Plant response rating, Morningglory ([16]; 62 g ai/ha): 70
- Plant response rating, Black Mustard ([17]; 31 g ai/ha): 65
- Plant response rating, Black Mustard ([17]; 125 g ai/ha): 80
- Plant response rating, Black Mustard ([17]; 250 g ai/ha): 85
- Plant response rating, Black Mustard ([17]; 62 g ai/ha): 80
